Data: patent US9700052B2, “Methods and compositions comprising steroid honey bee feeding inhibitors” (Iowa State University Research Foundation, Inc., priority 2015, dated 2017)

Tested on: honey bees, Apis mellifera
Experiment: Artificial styrofoam flower foraging assay with 20% sucrose nectar tube
Type: in vivo
Settings: for Consumed, ml (nectar) / # feeding: n = 4
Description: To determine how the phytoecdysteroid inhibits bee foraging, we utilized artificial flowers so that the compounds can be added to a nectar source or sprayed on the surface of the artificial flower. The artificial flowers were made from green florist styrofoam blocks (12 cm^2) and petals made from blue and green tape. In the center of the styrofoam block a 2 ml test tube was inserted that contained a 20% sucrose solution in water as a substitute for nectar. The same array of holders was used as in the previous study (FIG. 2).
To determine if the repellent activity occurs in a concentration dependent manner we utilized the artificial flowers treated with various concentrations of the steroids in the nectar tube. In addition to observing the number of honey bees feeding from the nectar tube we measured the amount of nectar consumed after the observation period of about 45 min. The purified phytoecdysteroid was effective at 2.5 and 0.4 mg/ml in reducing the number of honey bees feeding on the nectar compared to lower concentrations. […] The pure 20-OH-ecdysone was also inhibitory at 1 mg/ml and 0.2 mg/ml with more foraging at the lower concentration. Cucurbitacin B was inhibitory at 0.5 mg/ml but not at 0.1 mg/ml.

[1] = 0.01 mg/ml in 2 ml nectar tube, about 45 min
[2] = 0.01 mg/ml in nectar tube, about 45 min
[3] = 0.1 mg/ml in 2 ml nectar tube, about 45 min
[4] = 0.1 mg/ml in nectar tube, about 45 min

CC(C)(O)CC[C@@H](O)[C@](C)(O)[C@H]1CC[C@@]2(O)C3=CC(=O)[C@@H]4C[C@@H](O)[C@@H](O)C[C@]4(C)[C@H]3CC[C@]12C [20-hydroxyecdysone]
Consumed, ml (nectar) [1]: 1.1 mL | # feeding [2]: 37 | Consumed, ml (nectar) [3]: 1.7 mL | # feeding [4]: 56 | Consumed, ml (nectar) (0.2 mg/ml in 2 ml nectar tube, about 45 min): 0.25 mL | inhibition of honey bees feeding on the nectar (0.2 mg/ml in nectar tube): inhibitory | # feeding (0.2 mg/ml in nectar tube, about 45 min): 17 | Consumed, ml (nectar) (1 mg/ml in 2 ml nectar tube, about 45 min): 0.05 mL | inhibition of honey bees feeding on the nectar (1 mg/ml in nectar tube): inhibitory | # feeding (1 mg/ml in nectar tube, about 45 min): 2

CC(=O)OC(C)(C)/C=C/C(=O)[C@](C)(O)[C@H]1C(O)C[C@@]2(C)[C@@H]3CC=C4[C@H](CC(O)C(=O)C4(C)C)[C@@]3(C)C(=O)C[C@]12C (stereo partly drawn) [Cucurbitacin B]
Consumed, ml (nectar) [1]: 1.9 mL | # feeding [2]: 4 | Consumed, ml (nectar) [3]: 1.2 mL | inhibition of honey bees feeding on the nectar (0.1 mg/ml in nectar tube): not | # feeding [4]: 3 | Consumed, ml (nectar) (0.5 mg/ml in 2 ml nectar tube, about 45 min): 0.3 mL | inhibition of honey bees feeding on the nectar (0.5 mg/ml in nectar tube): inhibitory | # feeding (0.5 mg/ml in nectar tube, about 45 min): 8

C[C@H]([C@H](O)CCC(C)(C)O)[C@H]1CC[C@@]2(O)C3=CC(=O)[C@@H]4C[C@@H](O)[C@@H](O)C[C@]4(C)[C@H]3CC[C@]12C [Pure ecdsyone, ecdysone]
inhibition of honey bees feeding on the nectar (0.01 mg/ml in nectar tube): not | inhibition of honey bees feeding on the nectar (0.1 mg/ml in nectar tube): inhibitory | inhibition of honey bees feeding on the nectar (1 mg/ml in nectar tube): inhibitory | Consumed, ml (nectar) (Table 5, 0.01 mg/ml in 2 ml nectar tube): 0.8 mL | # feeding (Table 5, 0.01 mg/ml in nectar tube): 24 | Consumed, ml (nectar) (Table 5, 0.1 mg/ml in 2 ml nectar tube): 0.3 mL | # feeding (Table 5, 0.1 mg/ml in nectar tube): 0 | Consumed, ml (nectar) (Table 5, 1 mg/ml in 2 ml nectar tube): 0.2 mL | # feeding (Table 5, 1 mg/ml in nectar tube): 0
